For the experiment, the system named is HL60 cells. As to the kind of experiment: Inhibition effect of HL60 cell line growth (MTT, 3 days). The note with it: Homo sapiens, HL-60, 72 h, read-out: HL60 Growth Inhibition. The format is cell-based. The essentials:
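Cells were seeded at 6.0×10^4 cells/ml in RPMI1640 with 10% FBS. Compound was added as a PBS dilution series (100–0.03 μg/ml, from DMSO stock) and cultured 3 days at 37 °C, 5% CO2. Viability was measured by MTT (3 h), with formazan dissolved in DMSO and read at 570 nm.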

Where [1] appears, read: HL60 cells, 3 days culture, MTT, absorbance 570 nm.

Read-outs that look alike come from different tables or passages of the source.

With `COc1cc(C(=O)c2cccc(-c3csc(N)n3)c2)cc(OC)c1OC` [Compound 570, (3-(2-aminothiazol-4-yl)phenyl)(3,4,5-trimethoxyphenyl)methanone], the IC50 under setting [1] was 120 nM.

In the case of `COc1cc(C(=O)c2ccc(-c3csc(N)n3)cc2)cc(OC)c1OC` [Compound 571, (4-(2-aminothiazol-4-yl)phenyl)(3,4,5-trimethoxyphenyl)methanone], under setting [1], the IC50 is 110 nM. On to `COc1cc(C(=O)c2cccc(-c3nccs3)c2)cc(OC)c1OC` [Compound 581], for which, under setting [1], the IC50 was determined as 40 nM. `COc1ccc(-c2nccs2)cc1C(=O)c1cc(OC)c(OC)c(OC)c1` [Compound 583, (2-methoxy-5-(thiazol-2-yl)phenyl)(3,4,5-trimethoxyphenyl)methanone]: the IC50 is 10 nM. As for `COc1cc(C(=O)c2cccc(-c3ncco3)c2)cc(OC)c1OC` [Compound 587, (3-(oxazol-2-yl)phenyl)(3,4,5-trimethoxyphenyl)methanone], under setting [1], the IC50 is 40 nM.

Consider `COc1ccc(-c2ccsc2)cc1C(=O)c1cc(OC)c(OC)c(OC)c1` [Compound 588, (2-methoxy-5-(thiophen-3-yl)phenyl)(3,4,5-trimethoxyphenyl)methanone], for which the IC50 under setting [1] was 120 nM.

For the molecule `COc1ccc(-c2ncco2)cc1C(=O)c1cc(OC)c(OC)c(OC)c1` [Compound 590, (2-methoxy-5-(oxazol-2-yl)phenyl)(3,4,5-trimethoxyphenyl)methanone], the IC50 stood at 10 nM. Take `COc1cc(C(=O)c2cccc(-c3ccc[nH]3)c2)cc(OC)c1OC` [Compound 591, (3-(1H-pyrrol-2-yl)phenyl)(3,4,5-trimethoxyphenyl)methanone]: the IC50 under setting [1] stood at 200 nM. Turning to `COc1ccc(-c2cccs2)cc1C(=O)c1cc(OC)c(OC)c(OC)c1` [Compound 594, (2-methoxy-5-(thiophen-2-yl)phenyl)(3,4,5-trimethoxyphenyl)methanone], under setting [1], the IC50 is 120 nM. In the case of `COc1ccc(-c2csc(C)n2)cc1C(=O)c1cc(OC)c(OC)c(OC)c1` [Compound 595, (2-methoxy-5-(methylthiazol-4-yl)phenyl)(3,4,5-trimethoxyphenyl)methanone], the IC50 under setting [1] was determined as 120 nM. On the same count and under the same terms, under `COc1cc(C(=O)c2cc(-c3csc(C)n3)ccc2-n2cncn2)cc(OC)c1OC` [Compound 596, (5-(2-methylthiazol-4-yl)-2-(1H-1,2,4-triazol-1-yl)phenyl)(3,4,5-trimethoxyphenyl)methanone] stands 230 nM; under `COc1cc(C(=O)c2cc(-c3ccc[nH]3)ccc2N)cc(OC)c1OC` [Compound 597, (2-amino-5-(1H-pyrrol-2-yl)phenyl)(3,4,5-trimethoxyphenyl)methanone], 220 nM; under `COc1ccc(-c2ccn[nH]2)cc1C(=O)c1cc(OC)c(OC)c(OC)c1` [Compound 598, (2-methoxy-5-(1H-pyrazol-5-yl)phenyl)(3,4,5-trimethoxyphenyl)methanone], 390 nM. Same read-out and setting: next, `COc1cc(C(=O)c2ccc(-c3ccc[nH]3)cc2-n2cncn2)cc(OC)c1OC` [Compound 599, (4-(1H-pyrrol-2-yl)-2-(1H-1,2,4-triazol-1-yl)phenyl)(3,4,5-trimethoxyphenyl)methanone]: 140 nM; `COc1cc(C(=O)c2cc(-c3nccs3)ccc2O)cc(OC)c1OC` [Compound 601, (2-hydroxy-5-(thiazol-2-yl)phenyl)(3,4,5-trimethoxyphenyl)methanone]: 90 nM.

Take `COc1cc(C(=O)c2ccc(-c3ncco3)cc2-n2cncn2)cc(OC)c1OC` [Compound 602, (4-(oxazol-2-yl)-2-(1H-1,2,4-triazol-1-yl)phenyl)(3,4,5-trimethoxyphenyl)methanone]: the IC50 under setting [1] came out at 170 nM.

The values are drawn from patent US8053439B2, “Benzophenone derivatives useful for inhibiting formation of microtubule” (Chong Kun Dang Pharmaceutical Corp., priority 2006, dated 2011).
